Measurements: ChEMBL document CHEMBL4418261, “Pyripyropene derivatives having acat2 inhibiting activity and stable to metabolizing enzymes” (2017)

How the values were obtained:
[1] = biological target: T1, Sterol O-acyltransferase 2 (Mus musculus) (UniProt O88908); experiment: Potency index, ratio of PRD-043 IC50 to test compound IC50 for inhibition ACAT2 in mouse hepatic microsome membranes using [1-14C]oleoyl coenzyme A as substrate incubated for 5 mins; assay type: microsomes
T1 sequence (whole entry): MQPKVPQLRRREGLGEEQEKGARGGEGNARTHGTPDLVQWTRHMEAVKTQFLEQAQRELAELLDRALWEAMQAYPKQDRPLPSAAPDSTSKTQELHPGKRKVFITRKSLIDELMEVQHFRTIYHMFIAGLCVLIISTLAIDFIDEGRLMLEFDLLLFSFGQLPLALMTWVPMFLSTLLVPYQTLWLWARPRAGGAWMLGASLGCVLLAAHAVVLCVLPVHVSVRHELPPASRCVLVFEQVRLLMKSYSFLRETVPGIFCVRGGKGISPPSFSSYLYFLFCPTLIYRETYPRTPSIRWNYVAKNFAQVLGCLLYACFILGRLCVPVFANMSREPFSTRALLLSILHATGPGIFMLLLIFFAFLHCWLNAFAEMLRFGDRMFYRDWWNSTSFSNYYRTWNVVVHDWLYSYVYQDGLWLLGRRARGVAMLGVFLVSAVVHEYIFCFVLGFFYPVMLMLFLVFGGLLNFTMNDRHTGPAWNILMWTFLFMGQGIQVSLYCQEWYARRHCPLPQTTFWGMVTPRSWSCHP

[2] = Half life in Sprague-Dawley rat hepatic microsomes at 6 ug/ml by LC-MS method; assay type: ADME, Microsome; settings: liver microsomes

SMILES	Ratio IC50 [1]	half-life at 6 ug/ml [2] [h]
C[C@@]12CO[C@@H](c3ccccc3)O[C@H]1CC[C@@]1(C)[C@H]2C[C@H](OC(=O)C2CCCCC2)[C@@]2(C)Oc3cc(-c4cccnc4)oc(=O)c3[C@H](O)[C@H]12	10 to 20	> 9
Cc1cccc(C)c1[C@@H]1OC[C@@]2(C)[C@@H]3C[C@H](OC(=O)c4ccc(C#N)cc4)[C@@]4(C)Oc5cc(-c6cccnc6)oc(=O)c5[C@H](O)[C@@H]4[C@@]3(C)CC[C@@H]2O1	10 to 20	> 9
CC(=O)OC[C@@]1(C)[C@@H]2C[C@H](OC(=O)c3ccccc3F)[C@@]3(C)Oc4cc(-c5cccnc5)oc(=O)c4[C@H](O)[C@@H]3[C@@]2(C)CC[C@@H]1OC(C)=O		< 1
CC(=O)O[C@H]1CC[C@@]2(C)[C@@H](C[C@H](OC(C)=O)[C@@]3(C)Oc4cc(-c5cccnc5)oc(=O)c4[C@H](O)[C@H]23)[C@]1(C)COC(=O)c1ccccc1	10 to 20	> 9
Cc1ccc([C@@H]2OC[C@@]3(C)[C@@H]4C[C@H](OC(=O)c5ccc(F)cc5)[C@@]5(C)Oc6cc(-c7cccnc7)oc(=O)c6[C@H](O)[C@@H]5[C@@]4(C)CC[C@@H]3O2)c(C)c1	10 to 20	> 9
CC(=O)OC[C@@]1(C)[C@@H]2C[C@H](OC(=O)c3ccccc3C)[C@@]3(C)Oc4cc(-c5cccnc5)oc(=O)c4[C@H](O)[C@@H]3[C@@]2(C)CC[C@@H]1OC(C)=O		< 1
CC(C)C(=O)OC[C@@]1(C)[C@@H]2C[C@H](OC(=O)c3ccc([N+](=O)[O-])cc3)[C@@]3(C)Oc4cc(-c5cccnc5)oc(=O)c4[C@H](O)[C@@H]3[C@@]2(C)CC[C@@H]1OC(=O)C(C)C	10 to 20	> 9
CCc1ccc(C(=O)O[C@H]2C[C@H]3[C@](C)(COC(C)=O)[C@@H](OC(C)=O)CC[C@]3(C)[C@H]3[C@@H](O)c4c(cc(-c5cccnc5)oc4=O)O[C@]23C)cc1		< 1
CC(=O)O[C@H]1C[C@H]2[C@](C)(COC(=O)C(C)C)[C@@H](OC(=O)C(C)C)CC[C@]2(C)[C@H]2[C@@H](O)c3c(cc(-c4cccnc4)oc3=O)O[C@]12C	10 to 20	> 9
Cc1ccc([C@@H]2OC[C@@]3(C)[C@@H]4C[C@H](OC(=O)c5ccc(F)cc5)[C@@]5(C)Oc6cc(-c7cccnc7)oc(=O)c6[C@H](O)[C@@H]5[C@@]4(C)CC[C@@H]3O2)cc1	< 20	> 9
CC(=O)OC[C@@]1(C)[C@@H]2C[C@H](OC(=O)c3ccc(C#N)cc3)[C@@]3(C)Oc4cc(-c5cccnc5)oc(=O)c4[C@H](O)[C@@H]3[C@@]2(C)CC[C@@H]1OC(=O)c1ccccc1	10 to 20	> 9
COc1ccccc1[C@@H]1OC[C@@]2(C)[C@@H]3C[C@H](OC(=O)c4ccc(C#N)cc4)[C@@]4(C)Oc5cc(-c6cccnc6)oc(=O)c5[C@H](O)[C@@H]4[C@@]3(C)CC[C@@H]2O1	10 to 20	> 9
CC(C)C(=O)OC[C@@]1(C)[C@@H]2C[C@H](OC(=O)C3CCCCC3)[C@@]3(C)Oc4cc(-c5cccnc5)oc(=O)c4[C@H](O)[C@@H]3[C@@]2(C)CC[C@@H]1OC(=O)C(C)C	10 to 20	> 9
COc1ccccc1[C@@H]1OC[C@@]2(C)[C@@H]3C[C@H](OC(=O)c4ccc(F)cc4)[C@@]4(C)Oc5cc(-c6cccnc6)oc(=O)c5[C@H](O)[C@@H]4[C@@]3(C)CC[C@@H]2O1	10 to 20	> 9
CN(C)c1ccc([C@@H]2OC[C@@]3(C)[C@@H]4C[C@H](OC(=O)c5ccc(C#N)cc5)[C@@]5(C)Oc6cc(-c7cccnc7)oc(=O)c6[C@H](O)[C@@H]5[C@@]4(C)CC[C@@H]3O2)cc1	< 20	> 9
C[C@@]12CO[C@@H](c3ccccc3)O[C@H]1CC[C@@]1(C)[C@H]2C[C@H](OC(=O)c2ccccc2)[C@@]2(C)Oc3cc(-c4cccnc4)oc(=O)c3[C@H](O)[C@H]12	10 to 20	> 9
CCCCCC(=O)OC[C@@]1(C)[C@@H]2C[C@H](OC(=O)c3ccc(C#N)cc3)[C@@]3(C)Oc4cc(-c5cccnc5)oc(=O)c4[C@H](O)[C@@H]3[C@@]2(C)CC[C@@H]1OC(=O)CCCCC	10 to 20	> 9
CC(=O)OC[C@@]1(C)[C@@H]2C[C@H](OC(=O)c3cccc(Br)c3)[C@@]3(C)Oc4cc(-c5cccnc5)oc(=O)c4[C@H](O)[C@@H]3[C@@]2(C)CC[C@@H]1OC(C)=O		< 1
C[C@@]12CO[C@@H](c3ccccc3F)O[C@H]1CC[C@@]1(C)[C@H]2C[C@H](OC(=O)c2ccc(F)cc2)[C@@]2(C)Oc3cc(-c4cccnc4)oc(=O)c3[C@H](O)[C@H]12	10 to 20	> 9

SMILES	Ratio IC50 [1]	half-life at 6 ug/ml [2] [h]
Cc1ccccc1[C@@H]1OC[C@@]2(C)[C@@H]3C[C@H](OC(=O)c4ccc(F)cc4)[C@@]4(C)Oc5cc(-c6cccnc6)oc(=O)c5[C@H](O)[C@@H]4[C@@]3(C)CC[C@@H]2O1	10 to 20	> 9
CC(=O)OC[C@@]1(C)[C@@H]2C[C@H](OC(C)=O)[C@@]3(C)Oc4cc(-c5cccnc5)oc(=O)c4[C@H](O)[C@@H]3[C@@]2(C)CC[C@@H]1OC(C)=O		< 1
Cc1cccc([C@@H]2OC[C@@]3(C)[C@@H]4C[C@H](OC(=O)c5ccc(F)cc5)[C@@]5(C)Oc6cc(-c7cccnc7)oc(=O)c6[C@H](O)[C@@H]5[C@@]4(C)CC[C@@H]3O2)c1	10 to 20	> 9
COc1cccc(C(=O)O[C@H]2C[C@H]3[C@](C)(COC(C)=O)[C@@H](OC(C)=O)CC[C@]3(C)[C@H]3[C@@H](O)c4c(cc(-c5cccnc5)oc4=O)O[C@]23C)c1	1	> 9
C[C@@]12CO[C@@H](c3ccccc3F)O[C@H]1CC[C@@]1(C)[C@H]2C[C@H](OC(=O)c2ccc(C#N)cc2)[C@@]2(C)Oc3cc(-c4cccnc4)oc(=O)c3[C@H](O)[C@H]12	10 to 20	> 9
C[C@]1(COC(=O)c2ccccc2)[C@@H]2C[C@H](OC(=O)c3ccc(C#N)cc3)[C@@]3(C)Oc4cc(-c5cccnc5)oc(=O)c4[C@H](O)[C@@H]3[C@@]2(C)CC[C@@H]1OC(=O)c1ccccc1	10 to 20	> 9
CC(C)C(=O)OC[C@@]1(C)[C@@H]2C[C@H](OC(=O)c3ccc(C#N)cc3)[C@@]3(C)Oc4cc(-c5cccnc5)oc(=O)c4[C@H](O)[C@@H]3[C@@]2(C)CC[C@@H]1OC(=O)C(C)C	0.1 to 1	> 9
CC(=O)O[C@H]1CC[C@@]2(C)[C@@H](C[C@H](OC(=O)c3ccc(C#N)cc3)[C@@]3(C)Oc4cc(-c5cccnc5)oc(=O)c4[C@H](O)[C@H]23)[C@]1(C)COC(=O)C(C)C	10 to 20	> 9
CC(=O)OC[C@@]1(C)[C@@H]2C[C@H](OC(=O)c3ccc(C#N)cc3)[C@@]3(C)Oc4cc(-c5cccnc5)oc(=O)c4[C@H](O)[C@@H]3[C@@]2(C)CC[C@@H]1OC(=O)C(C)C	< 20	> 9
Cc1cccc([C@@H]2OC[C@@]3(C)[C@@H]4C[C@H](OC(=O)c5ccc(C#N)cc5)[C@@]5(C)Oc6cc(-c7cccnc7)oc(=O)c6[C@H](O)[C@@H]5[C@@]4(C)CC[C@@H]3O2)c1	< 20	> 9
CC(=O)OC[C@@]1(C)[C@@H]2C[C@H](OC(=O)C3CCCCC3)[C@@]3(C)Oc4cc(-c5cccnc5)oc(=O)c4[C@H](O)[C@@H]3[C@@]2(C)CC[C@@H]1OC(C)=O		< 1
CC(=O)O[C@H]1C[C@H]2[C@]3(C)CO[C@@H](c4ccccc4)O[C@H]3CC[C@]2(C)[C@H]2[C@@H](O)c3c(cc(-c4cccnc4)oc3=O)O[C@]12C	10 to 20	> 9
COc1ccc(C(OC)O[C@H]2C[C@H]3[C@]4(C)CO[C@@H](c5ccccc5)O[C@H]4CC[C@]3(C)[C@H]3[C@@H](O)c4c(cc(-c5cccnc5)oc4=O)O[C@]23C)cc1 (some centres not stated)	10 to 20	> 9
CC(=O)O[C@H]1CC[C@@]2(C)[C@@H](C[C@H](OC(=O)c3ccc(C#N)cc3)[C@@]3(C)Oc4cc(-c5cccnc5)oc(=O)c4[C@H](O)[C@H]23)[C@]1(C)COC(=O)c1ccccc1	10 to 20	> 9
Cc1ccc([C@@H]2OC[C@@]3(C)[C@@H]4C[C@H](OC(=O)c5ccc(C#N)cc5)[C@@]5(C)Oc6cc(-c7cccnc7)oc(=O)c6[C@H](O)[C@@H]5[C@@]4(C)CC[C@@H]3O2)cc1	10 to 20	> 9
CC(=O)OC[C@@]1(C)[C@@H]2C[C@H](OC(=O)c3ccc(C)cc3)[C@@]3(C)Oc4cc(-c5cccnc5)oc(=O)c4[C@H](O)[C@@H]3[C@@]2(C)CC[C@@H]1OC(C)=O		< 1
Cc1ccc([C@@H]2OC[C@@]3(C)[C@@H]4C[C@H](OC(=O)c5ccc(C#N)cc5)[C@@]5(C)Oc6cc(-c7cccnc7)oc(=O)c6[C@H](O)[C@@H]5[C@@]4(C)CC[C@@H]3O2)c(C)c1	10 to 20	> 9
C[C@@]12CO[C@@H](c3cccc4ccccc34)O[C@H]1CC[C@@]1(C)[C@H]2C[C@H](OC(=O)c2ccc(C#N)cc2)[C@@]2(C)Oc3cc(-c4cccnc4)oc(=O)c3[C@H](O)[C@H]12	10 to 20	> 9
